Counter-ions that a name gives are not always drawn.
How the values were obtained:
NaV1.1 [1] = target: T1, NaV1.1 (Homo sapiens (Human), UniProt P35498); assay: Sodium Influx Assay (Flux), NaV1.1; assay type: cell-based; conditions: Trex HEK293 cells, ANG2 dye; arithmetic mean
NaV1.5 [2] = target: T2, NaV1.5 (Homo sapiens (Human), UniProt Q14524); assay: cell-based
NaV1.6 [3] = target: T3, NaV1.6 (Homo sapiens (Human), UniProt Q9UQD0); assay: Sodium Influx Assay (Flux), NaV1.6
NaV1.6 [4] = target: T3, NaV1.6; assay: Electrophysiological Assay (EP), patch voltage clamp, NaV1.6; assay type: cell-based; conditions: HEK-293 cells, whole-cell patch clamp, inactivated state; arithmetic mean
NaV1.1 [5] = target: T1, NaV1.1; assay: Electrophysiological Assay (EP), patch voltage clamp, NaV1.1; assay type: cell-based; conditions: HEK-293 cells, whole-cell patch clamp, inactivated state; arithmetic mean
NaV1.5 [6] = target: T2, NaV1.5; assay: Sodium Influx Assay (Flux), NaV1.5; conditions: read-out: Flux NaV1.5 IC50; Trex HEK293 cells, ANG2 dye; arithmetic mean
[7] = read-out: Flux NaV1.6 IC50, Trex HEK293 cells, ANG2 dye, arithmetic mean

T2 sequence (Q14524 other isoform, or with tags, fused parts or gaps): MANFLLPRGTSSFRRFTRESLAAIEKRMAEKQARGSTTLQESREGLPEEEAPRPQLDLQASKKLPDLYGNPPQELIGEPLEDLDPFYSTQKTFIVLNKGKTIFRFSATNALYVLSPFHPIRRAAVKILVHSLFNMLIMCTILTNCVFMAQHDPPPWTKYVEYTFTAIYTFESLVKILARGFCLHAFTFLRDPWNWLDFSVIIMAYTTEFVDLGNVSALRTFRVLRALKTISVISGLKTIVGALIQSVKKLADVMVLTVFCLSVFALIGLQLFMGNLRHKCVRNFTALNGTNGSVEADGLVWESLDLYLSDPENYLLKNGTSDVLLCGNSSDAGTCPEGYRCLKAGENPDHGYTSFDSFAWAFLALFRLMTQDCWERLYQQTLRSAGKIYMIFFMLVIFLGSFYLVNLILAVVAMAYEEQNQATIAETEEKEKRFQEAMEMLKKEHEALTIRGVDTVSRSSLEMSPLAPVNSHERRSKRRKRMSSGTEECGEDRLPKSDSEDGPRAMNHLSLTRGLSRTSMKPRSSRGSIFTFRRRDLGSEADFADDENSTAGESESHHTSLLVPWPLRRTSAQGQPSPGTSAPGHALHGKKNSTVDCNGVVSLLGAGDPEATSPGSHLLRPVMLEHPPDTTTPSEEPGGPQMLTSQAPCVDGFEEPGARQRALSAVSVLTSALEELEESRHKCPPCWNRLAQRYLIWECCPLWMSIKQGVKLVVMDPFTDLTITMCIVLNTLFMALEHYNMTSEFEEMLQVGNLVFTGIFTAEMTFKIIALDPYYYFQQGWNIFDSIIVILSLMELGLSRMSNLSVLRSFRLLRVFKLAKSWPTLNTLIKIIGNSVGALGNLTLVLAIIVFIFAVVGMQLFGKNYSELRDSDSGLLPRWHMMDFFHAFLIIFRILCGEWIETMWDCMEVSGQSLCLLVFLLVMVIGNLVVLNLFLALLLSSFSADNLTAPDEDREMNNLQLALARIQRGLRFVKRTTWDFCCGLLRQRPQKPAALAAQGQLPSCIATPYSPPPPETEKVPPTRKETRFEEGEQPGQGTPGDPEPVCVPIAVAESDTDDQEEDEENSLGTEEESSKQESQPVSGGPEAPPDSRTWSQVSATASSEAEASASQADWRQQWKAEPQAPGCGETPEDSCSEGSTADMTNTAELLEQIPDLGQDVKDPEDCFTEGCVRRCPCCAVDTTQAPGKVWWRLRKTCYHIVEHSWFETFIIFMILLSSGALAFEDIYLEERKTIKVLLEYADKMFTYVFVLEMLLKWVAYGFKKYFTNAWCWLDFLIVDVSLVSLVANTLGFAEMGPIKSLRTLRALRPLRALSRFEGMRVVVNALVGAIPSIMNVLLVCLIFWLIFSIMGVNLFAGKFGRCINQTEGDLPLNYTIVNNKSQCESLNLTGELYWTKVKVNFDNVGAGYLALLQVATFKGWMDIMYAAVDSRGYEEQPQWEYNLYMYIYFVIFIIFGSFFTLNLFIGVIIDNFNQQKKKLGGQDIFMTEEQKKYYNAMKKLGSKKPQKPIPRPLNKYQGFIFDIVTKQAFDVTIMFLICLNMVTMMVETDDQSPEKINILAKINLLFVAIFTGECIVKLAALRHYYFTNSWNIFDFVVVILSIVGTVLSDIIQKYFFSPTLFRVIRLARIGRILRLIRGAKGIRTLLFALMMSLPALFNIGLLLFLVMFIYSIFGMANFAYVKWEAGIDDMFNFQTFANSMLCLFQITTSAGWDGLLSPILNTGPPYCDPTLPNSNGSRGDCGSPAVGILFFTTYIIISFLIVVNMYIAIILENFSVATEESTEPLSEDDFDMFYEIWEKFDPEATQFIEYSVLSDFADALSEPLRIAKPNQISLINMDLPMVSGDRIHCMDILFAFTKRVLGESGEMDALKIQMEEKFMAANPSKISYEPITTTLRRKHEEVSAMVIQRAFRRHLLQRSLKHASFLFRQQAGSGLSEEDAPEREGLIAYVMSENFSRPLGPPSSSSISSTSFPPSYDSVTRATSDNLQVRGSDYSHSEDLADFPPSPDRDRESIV
T3 sequence (Q9UQD0 whole entry): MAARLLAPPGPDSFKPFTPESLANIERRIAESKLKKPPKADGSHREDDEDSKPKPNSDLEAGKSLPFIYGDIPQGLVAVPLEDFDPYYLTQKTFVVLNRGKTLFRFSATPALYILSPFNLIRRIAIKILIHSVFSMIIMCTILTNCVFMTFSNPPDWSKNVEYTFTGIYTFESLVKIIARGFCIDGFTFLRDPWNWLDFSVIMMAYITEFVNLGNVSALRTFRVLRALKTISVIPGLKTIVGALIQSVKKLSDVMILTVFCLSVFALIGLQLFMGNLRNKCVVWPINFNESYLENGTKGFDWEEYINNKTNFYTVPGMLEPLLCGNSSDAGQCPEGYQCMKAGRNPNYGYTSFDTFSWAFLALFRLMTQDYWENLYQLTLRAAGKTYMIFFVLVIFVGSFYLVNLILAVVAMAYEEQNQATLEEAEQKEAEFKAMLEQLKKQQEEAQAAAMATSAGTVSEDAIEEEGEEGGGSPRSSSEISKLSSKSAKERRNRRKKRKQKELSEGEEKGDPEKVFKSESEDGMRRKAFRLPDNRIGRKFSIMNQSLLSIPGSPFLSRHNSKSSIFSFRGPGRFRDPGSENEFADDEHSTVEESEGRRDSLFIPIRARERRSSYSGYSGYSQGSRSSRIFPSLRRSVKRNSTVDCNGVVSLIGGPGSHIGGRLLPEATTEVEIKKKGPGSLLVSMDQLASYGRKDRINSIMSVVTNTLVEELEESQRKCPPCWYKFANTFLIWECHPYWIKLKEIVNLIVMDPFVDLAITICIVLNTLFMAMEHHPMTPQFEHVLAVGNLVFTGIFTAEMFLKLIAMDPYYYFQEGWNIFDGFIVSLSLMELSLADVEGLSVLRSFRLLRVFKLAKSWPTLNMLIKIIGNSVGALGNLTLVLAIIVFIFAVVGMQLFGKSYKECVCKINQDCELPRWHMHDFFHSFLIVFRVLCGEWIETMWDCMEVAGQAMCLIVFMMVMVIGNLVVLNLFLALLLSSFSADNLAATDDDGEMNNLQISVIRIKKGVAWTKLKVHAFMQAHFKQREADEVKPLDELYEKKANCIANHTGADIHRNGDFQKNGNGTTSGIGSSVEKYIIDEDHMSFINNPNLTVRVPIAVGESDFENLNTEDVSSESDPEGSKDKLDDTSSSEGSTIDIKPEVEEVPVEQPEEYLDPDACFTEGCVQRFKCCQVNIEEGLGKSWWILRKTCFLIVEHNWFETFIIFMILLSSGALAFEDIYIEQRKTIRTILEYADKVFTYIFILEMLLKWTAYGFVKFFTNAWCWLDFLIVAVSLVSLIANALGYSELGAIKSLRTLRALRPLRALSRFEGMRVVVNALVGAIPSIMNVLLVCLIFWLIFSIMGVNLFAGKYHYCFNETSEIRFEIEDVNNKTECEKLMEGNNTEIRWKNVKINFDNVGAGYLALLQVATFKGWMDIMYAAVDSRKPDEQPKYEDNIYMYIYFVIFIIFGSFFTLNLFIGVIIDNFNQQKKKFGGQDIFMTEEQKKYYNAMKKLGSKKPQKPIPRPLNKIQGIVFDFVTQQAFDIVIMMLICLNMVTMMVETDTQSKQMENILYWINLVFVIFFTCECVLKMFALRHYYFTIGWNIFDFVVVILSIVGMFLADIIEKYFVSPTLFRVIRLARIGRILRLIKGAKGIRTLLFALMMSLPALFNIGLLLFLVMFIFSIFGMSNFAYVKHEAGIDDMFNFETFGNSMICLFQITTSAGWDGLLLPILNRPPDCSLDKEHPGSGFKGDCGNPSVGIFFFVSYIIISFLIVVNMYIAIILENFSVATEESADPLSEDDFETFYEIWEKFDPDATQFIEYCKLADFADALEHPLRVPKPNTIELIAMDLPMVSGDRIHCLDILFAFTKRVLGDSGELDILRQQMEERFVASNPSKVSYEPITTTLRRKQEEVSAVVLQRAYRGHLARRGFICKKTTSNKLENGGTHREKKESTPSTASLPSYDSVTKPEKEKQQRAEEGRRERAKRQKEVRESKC

Structure (SMILES)	IC50 (NaV1.1 [1])	IC50 (NaV1.5 [2])	IC50 (NaV1.6 [3])	IC50 (NaV1.6 [4])	IC50 (NaV1.1 [5])	IC50 (NaV1.6 [3]; [7])	IC50 (NaV1.5 [6])
Cc1c(OC2(C)CCN(Cc3ccccc3)C2)cc(F)c(S(=O)(=O)Nc2nccs2)c1F (racemic) [Example 228, rac-4-((1-benzyl-3-methylpyrrolidin-3-yl)oxy)-2,6-difluoro-3-methyl-N-(thiazol-2-yl)benzenesulfonamide 2,2,2-trifluoroacetate]	5.27 µM	23.1 µM	0.031 µM	–	–	–	–
C[C@H](c1cc(C2CC2)ccc1F)N1CCC(Oc2ccc(S(=O)(=O)Nc3cscn3)cc2Cl)CC1 (stereo in doubt) [Example 320]	4.25 µM	4.74 µM	3.24 µM	–	–	–	–
C[C@@H](c1ccccc1)N1CCC(Oc2ccc(S(=O)(=O)Nc3nccs3)cc2Cl)CC1 [Example 58, (S)-3-chloro-4-((1-(1-phenylethyl)piperidin-4-yl)oxy)-N-(thiazol-2-yl)benzenesulfonamide 2,2,2-trifluoroacetate]	–	5.58 µM	0.402 µM	0.093 µM	–	–	–
CN(c1cc(F)c(S(=O)(=O)Nc2cscn2)cc1Cl)[C@H]1CCN(Cc2cnn(Cc3ccccc3)c2)C1 [Example 165, (S)-4-((1-((1-benzyl-1H-pyrazol-4-yl)methyl)pyrrolidin-3-yl)(methyl)amino)-5-chloro-2-fluoro-N-(thiazol-4-yl)benzene-sulfonamide formate]	4.61 µM	6.97 µM	3.34 µM	–	–	–	–
CN(c1cc(F)c(S(=O)(=O)Nc2cscn2)cc1Cl)[C@H]1CCN(Cc2cccc3cccnc23)C1 [Example 170, (S)-5-chloro-2-fluoro-4-(methyl(1-(quinolin-8-ylmethyl)-pyrrolidin-3-yl)amino)-N-(thiazol-4-yl)benzene-sulfonamide formate]	11.3 µM	21.2 µM	1.61 µM	–	–	–	–
COc1cccnc1CN1CC[C@H](N(C)c2cc(F)c(S(=O)(=O)Nc3cscn3)cc2Cl)C1 [Example 176, (S)-5-chloro-2-fluoro-4-((1-((3-methoxypyridin-2-yl)methyl)pyrrolidin-3-yl)(methyl)amino)-N-(thiazol-4-yl)benzene-sulfonamide formate]	> 30 µM	> 30 µM	0.74 µM	–	–	–	–
CN(c1cc(F)c(S(=O)(=O)Nc2cscn2)cc1Cl)[C@H]1CCN(CCc2ccccc2)C1 [Example 179, (S)-5-chloro-2-fluoro-4-(methyl(1-phenethylpyrrolidin-3-yl)amino)-N-(thiazol-4-yl)benzene-sulfonamide formate]	6.91 µM	20.4 µM	4.89 µM	–	–	–	–
Cc1ccc(CN2CC[C@H](N(C)c3cc(F)c(S(=O)(=O)Nc4cscn4)cc3Cl)C2)s1 [Example 189, (S)-5-chloro-2-fluoro-4-(methyl(1-((5-methylthiophen-2-yl)methyl)pyrrolidin-3-yl)amino)-N-(thiazol-4-yl)benzene-sulfonamide formate]	7.38 µM	16.6 µM	1.87 µM	–	–	–	–
CN(c1cc(F)c(S(=O)(=O)Nc2cscn2)cc1Cl)[C@H]1CCN(Cc2ccc3[nH]ccc3c2)C1 [Example 190, (S)-4-((1-((1H-indol-5-yl)methyl)pyrrolidin-3-yl)(methyl)amino)-5-chloro-2-fluoro-N-(thiazol-4-yl)benzene-sulfonamide formate]	5.17 µM	8.25 µM	2.33 µM	–	–	–	–
CN(c1cc(F)c(S(=O)(=O)Nc2cscn2)cc1Cl)[C@H]1CCN([C@H]2CCc3ccccc32)C1 [Example 249, 5-chloro-4-(((S)-1-((S)-2,3-dihydro-1H-inden-1-yl)pyrrolidin-3-yl)(methyl)amino)-2-fluoro-N-(thiazol-4-yl)benzenesulfonamide 2,2,2-trifluoroacetate]	11.2 µM	–	–	0.11 µM	> 10 µM	0.285 µM	17.4 µM
C[C@H](c1ccccc1)N1CC[C@H](N(C)c2ccc(S(=O)(=O)Nc3cscn3)cc2Cl)C1 [Example 251, 3-chloro-4-(methyl((S)-1-((R)-1-phenylethyl)pyrrolidin-3-yl)amino)-N-(thiazol-4-yl)benzenesulfonamide 2,2,2-trifluoroacetate]	7.45 µM	–	–	0.412 µM	> 10 µM	1.51 µM	7.32 µM
CN(c1ccc(S(=O)(=O)Nc2cscn2)cc1Cl)[C@H]1CCN(Cc2cccc(C(F)F)c2)C1 [Example 253, (S)-3-chloro-4-((1-(3-(difluoromethyl)benzyl)pyrrolidin-3-yl)(methyl)amino)-N-(thiazol-4-yl)benzenesulfonamide formate]	2.67 µM	–	–	0.491 µM	4.76 µM	0.756 µM	2.52 µM
CN(c1cc(F)c(S(=O)(=O)Nc2cscn2)cc1Cl)[C@H]1CCN(C(C)(C)c2ccccc2)C1 [Example 257, (S)-5-chloro-2-fluoro-4-(methyl(1-(2-phenylpropan-2-yl)pyrrolidin-3-yl)amino)-N-(thiazol-4-yl)benzenesulfonamide formate]	10.3 µM	–	–	0.17 µM	> 10 µM	0.701 µM	10.6 µM
CN(c1cc(F)c(S(=O)(=O)Nc2cscn2)cc1Cl)[C@H]1CCN(C2(c3ccccc3)CC2)C1 [Example 259, (S)-5-chloro-2-fluoro-4-(methyl(1-(1-phenylcyclopropyl)pyrrolidin-3-yl)amino)-N-(thiazol-4-yl)benzenesulfonamide 2,2,2-trifluoroacetate]	3.77 µM	–	–	0.44 µM	3.52 µM	1.58 µM	5.81 µM
CN(c1cc(F)c(S(=O)(=O)Nc2cccc(F)n2)cc1Cl)[C@H]1CCN(C(C)(C)c2ccccc2)C1 [Example 260, (S)-5-chloro-2-fluoro-N-(6-fluoropyridin-2-yl)-4-(methyl(1-(2-phenylpropan-2-yl)pyrrolidin-3-yl)amino)benzenesulfonamide 2,2,2-trifluoroacetate]	7.35 µM	–	–	0.842 µM	9.64 µM	1.68 µM	10.1 µM
CCN(c1cc(F)c(S(=O)(=O)Nc2cscn2)cc1Cl)[C@H]1CCN(Cc2ccccc2)C1 [Example 263, (S)-4-((1-benzylpyrrolidin-3-yl)(ethyl)amino)-5-chloro-2-fluoro-N-(thiazol-4-yl)benzenesulfonamide]	4.44 µM	–	–	3.81 µM	> 10 µM	3.1 µM	19.1 µM
Cc1c(O[C@H]2CCN(Cc3ccccc3)C2)cc(F)c(S(=O)(=O)Nc2cscn2)c1F [Example 269, (S)-4-((1-benzylpyrrolidin-3-yl)oxy)-2,6-difluoro-3-methyl-N-(thiazol-4-yl)benzenesulfonamide hydrochloride]	> 30 µM	–	–	0.329 µM	> 10 µM	0.647 µM	> 30 µM
Cc1c(N(C)[C@H]2CCN(Cc3ccccc3)C2)cc(F)c(S(=O)(=O)Nc2ccsn2)c1F [Example 279, (S)-4-((1-benzylpyrrolidin-3-yl)(methyl)amino)-2,6-difluoro-N-(isothiazol-3-yl)-3-methylbenzenesulfonamide 2,2,2-trifluoroacetate]	21.2 µM	–	–	0.011 µM	> 10 µM	0.064 µM	> 30 µM
C[C@H](c1ccccc1)N1CCC(Oc2cc(F)c(S(=O)(=O)Nc3cscn3)c(F)c2Cl)CC1 [Example 283, (R)-3-chloro-2,6-difluoro-4-((1-(1-phenylethyl)piperidin-4-yl)oxy)-N-(thiazol-4-yl)benzenesulfonamide 2,2,2-trifluoroacetate formate]	> 30 µM	–	–	0.037 µM	> 10 µM	0.067 µM	> 30 µM
Cc1cccc(CN2CC[C@H](N(C)c3cc(F)c(S(=O)(=O)Nc4ncns4)c(F)c3C)C2)n1 [Example 296, 2,2,2-trifluoroacetate]	> 30 µM	> 30 µM	–	0.002 µM	–	0.01 µM	–
C[C@H](c1ccccc1)N1CCC(Oc2ccc(S(=O)(=O)Nc3ccncn3)cc2Cl)CC1 [Example 300, (R)-3-chloro-4-((1-(1-phenylethyl)piperidin-4-yl)oxy)-N-(pyrimidin-4-yl)benzenesulfonamide]	> 30 µM	–	–	0.972 µM	> 10 µM	1.07 µM	> 30 µM
C[C@H](c1cc(Cl)ccc1F)N1CCC(Oc2ccc(S(=O)(=O)Nc3cscn3)cc2Cl)CC1 [Example 315, (R)-3-chloro-4-((1-(1-(5-chloro-2-fluorophenyl)ethyl)piperidin-4-yl)oxy)-N-(thiazol-4-yl)benzenesulfonamide]	5.62 µM	–	–	0.377 µM	4.25 µM	1.07 µM	6.38 µM
Cc1c(N(C)[C@H]2CCN(Cc3ccccc3)C2)ccc(S(=O)(=O)Nc2cscn2)c1F [Example 321, (S)-4-((1-benzylpyrrolidin-3-yl)(methyl)amino)-2-fluoro-3-methyl-N-(thiazol-4-yl)benzenesulfonamide 2,2,2-trifluoroacetate]	12.3 µM	–	–	0.137 µM	> 10 µM	0.354 µM	21.4 µM
CN(c1ccc(S(=O)(=O)Nc2ncns2)cc1Cl)[C@H]1CCN(Cc2cc(F)cc(F)c2)C1 [Example 327, (S)-3-chloro-4-((1-(3,5-difluorobenzyl)pyrrolidin-3-yl)(methyl)amino)-N-(1,2,4-thiadiazol-5-yl)benzenesulfonamide formate]	17.3 µM	> 30 µM	1.04 µM	–	–	–	–
